One may read the MIC as the lowest concentration found to suppress growth. Read a low MIC as greater potency.

Among the test systems are Bacillus subtilis PS832; Escherichia coli DL7; Escherichia coli BL21; Bacillus cereus AS1.126; Escherichia coli AS1.349.
What all share (assay): ≥ marks a high value that may be exact or a test limit, other limits are often not marked, values filed in µg/mL are converted to µM
Test [1] concerns Acinetobacter baumannii CCARM 12005.
Test [2] concerns Acinetobacter baumannii CCARM 12035.
Test [3] concerns Acinetobacter baumannii CCARM 12036.
The subject of test [4] is Acinetobacter baumannii CCARM 12037.
Test [5] relates to Bacillus subtilis KCTC 1021.
In test [6] the test system is Bacillus subtilis KCTC 1022.
The subject of test [7] is Bacillus subtilis KCTC 3068.
Test [8] concerns Escherichia coli CCARM 1229.
Test [9] has as its system Escherichia coli CCARM 1238.
For test [10], the system named is Escherichia coli KCTC 1682.
In test [11] the test system is Escherichia coli KCTC 2571.
Test [12] concerns Escherichia coli KCTC 2593.
The test system of test [13] is Pseudomonas aeruginosa CCARM 2002.
Test [14] has as its system Pseudomonas aeruginosa CCARM 2003.
In test [15] the test system is Pseudomonas aeruginosa CCARM 2095.
Test [16] has as its system Pseudomonas aeruginosa CCARM 2163.
For test [17], the system named is Pseudomonas aeruginosa KCTC 1637.
The subject of test [18] is Pseudomonas aeruginosa KCTC 2004.
The subject of test [19] is Pseudomonas aeruginosa KCTC 2513.
Test [20] concerns Salmonella typhimurium CCARM 8003.
The subject of test [21] is Salmonella typhimurium CCARM 8007.
Test [22] relates to Salmonella typhimurium CCARM 8009.
The subject of test [23] is Salmonella typhimurium KCTC 1926.
The subject of test [24] is Staphylococcus aureus CCARM 3089.
In test [25] the test system is Staphylococcus aureus CCARM 3090.
For test [26], the system named is Staphylococcus aureus CCARM 3108.
In test [27] the test system is Staphylococcus aureus CCARM 3114.
In test [28] the test system is Staphylococcus aureus CCARM 3126.
The subject of test [29] is Staphylococcus aureus KCTC 1621.
Test [30] deals with Staphylococcus aureus KCTC 1916.
Test [31] has as its system Staphylococcus aureus KCTC 3881.
Test [32] has as its system Staphylococcus epidermidis KCTC 1917.
The subject of test [33] is Klebsiella aerogenes ATCC 13048.
The subject of test [34] is Staphylococcus epidermidis ATCC 12228.
Test [35] deals with Bacillus subtilis ISW 1214.
Test [36] has as its system Acinetobacter baumannii CICC 22934.
The test system of test [37] is Enterobacter cloacae CGMCC 1.58.
The test system of test [38] is Enterococcus faecalis CGMCC 1.595.
The test system of test [39] is Enterococcus faecium CGMCC 1.2334.
Test [40] concerns Klebsiella aerogenes CGMCC 1.876.
For test [41], the system named is Klebsiella pneumoniae subsp. pneumoniae CGMCC 1.176.
The subject of test [42] is Lactococcus lactis AS1.1690.
Test [43] concerns Proteus mirabilis CICC 22931.
Test [44] concerns Pseudomonas aeruginosa CGMCC 1.860.
For test [45], the system named is Staphylococcus aureus AS1.72.

≈ marks a conversion by molar mass, not a printed value.

For the compound `CC[C@H](C)[C@H](NC(=O)CNC(=O)[C@H](CCCN=C(N)N)NC(=O)[C@H](CCCCN)NC(=O)[C@@H](NC(=O)[C@H](Cc1cnc[nH]1)NC(=O)[C@H](Cc1cnc[nH]1)NC(=O)[C@H](Cc1ccccc1)NC(=O)[C@@H](N)Cc1ccccc1)[C@@H](C)CC)C(=O)N[C@@H](CCCCN)C(=O)N[C@@H](Cc1cnc[nH]1)C(=O)N[C@H](C(=O)NCC(=O)N[C@@H](CCCCN)C(=O)N[C@H](C(=O)N[C@H](C(=O)N[C@@H](Cc1cnc[nH]1)C(=O)N[C@@H](CCCN=C(N)N)C(=O)N[C@@H](CC(C)C)C(=O)N[C@H](C(=O)N[C@H](C(=O)NCC(=O)O)[C@@H](C)O)C(C)C)[C@@H](C)CC)[C@@H](C)O)C(C)C` [FFHHIKRGIKHVGKTIHRLVTG], the MIC amounted to 4 µM (≈ 10.3 µg/mL) in test [1]; 4 µM (≈ 10.3 µg/mL) in test [2]; 4 µM (≈ 10.3 µg/mL) in [3]; 4 µM (≈ 10.3 µg/mL) in test [4]; 8 µM (≈ 20.7 µg/mL) in [5]; 4 µM (≈ 10.3 µg/mL) in [6]. The MIC worked out at 4 µM (≈ 10.3 µg/mL) in test [7]; 8 µM (≈ 20.7 µg/mL) in test [8]; 8 µM (≈ 20.7 µg/mL) in test [9]; 2 µM (≈ 5.16 µg/mL) in [10]; 4 µM (≈ 10.3 µg/mL) in test [11]; 4 µM (≈ 10.3 µg/mL) in test [12]. Further, the MIC was found to be 4 µM (≈ 10.3 µg/mL) in [13]; 4 µM (≈ 10.3 µg/mL) in test [14]; 2 µM (≈ 5.16 µg/mL) in [15]; 2 µM (≈ 5.16 µg/mL) in test [16]; 4 µM (≈ 10.3 µg/mL) in [17]; 8 µM (≈ 20.7 µg/mL) in test [18]. The MIC in test [19] came out at 8 µM (≈ 20.7 µg/mL); in test [20] it was 16 µM (≈ 41.3 µg/mL); in [21], 8 µM (≈ 20.7 µg/mL); in test [22], 8 µM (≈ 20.7 µg/mL); in test [23] it was 8 µM (≈ 20.7 µg/mL); in test [24], 8 µM (≈ 20.7 µg/mL). Besides, the MIC in test [25] is 8 µM (≈ 20.7 µg/mL); in test [26] it was 8 µM (≈ 20.7 µg/mL); in test [27], 8 µM (≈ 20.7 µg/mL); in [28], 8 µM (≈ 20.7 µg/mL); in [29] it was 4 µM (≈ 10.3 µg/mL); in test [30] it was 4 µM (≈ 10.3 µg/mL). Besides, the MIC in test [31] and in test [32] was 4 µM (≈ 10.3 µg/mL) each time.
With `CC[C@H](C)[C@H](NC(=O)[C@H](CCCN=C(N)N)NC(=O)[C@H](CCCCN)NC(=O)[C@H](CC(C)C)NC(=O)[C@H](CC(C)C)NC(=O)CNC(=O)[C@H](Cc1cnc[nH]1)NC(=O)[C@@H](NC(=O)[C@@H](N)C(C)C)[C@@H](C)CC)C(=O)N[C@@H](CCCCN)C(=O)N[C@H](C(=O)N[C@@H](CC(C)C)C(=O)N[C@@H](CC(C)C)C(N)=O)[C@@H](C)O` [VIHGLLKRIKTLL], the MIC against Bacillus subtilis PS832 is 0.5 µM (≈ 0.751 µg/mL); in the test on Escherichia coli DL7 it was 2 µM (≈ 3.01 µg/mL); in [33] it was ≥ 32 µM; in test [34] it was 2 µM (≈ 3.01 µg/mL).
As for `CC(=O)NCC(=O)N[C@@H](Cc1c[nH]c2ccccc12)C(=O)N[C@@H](CCC(N)=O)C(=O)N[C@@H](CC(C)C)C(=O)N[C@@H](CC(C)C)C(=O)N[C@@H](C)C(=O)N[C@@H](CC(C)C)C(=O)N[C@@H](Cc1cnc[nH]1)C(=O)N[C@@H](CC(C)C)C(=O)N[C@@H](CCC(N)=O)C(=O)N[C@@H](CC(C)C)C(=O)N[C@@H](CC(C)C)C(=O)NCC(=O)N[C@@H](CC(C)C)C(=O)N[C@@H](Cc1cnc[nH]1)C(=O)N[C@@H](CC(C)C)C(=O)N[C@@H](CC(C)C)C(=O)N[C@@H](CCC(N)=O)C(=O)N[C@@H](CC(C)C)C(=O)N[C@@H](C)C(=O)N[C@@H](CC(C)C)C(=O)N[C@@H](CC(C)C)C(=O)N[C@@H](CCC(N)=O)C(=O)N[C@@H](CCCN=C(N)N)C(=O)N[C@@H](CCCN=C(N)N)C(=O)N[C@@H](CCCN=C(N)N)C(N)=O` [GWQLLALHLQLLGLHLLQLALLQRRR], the MIC (in [35]; in the test with Escherichia coli BL21) was ≥ 160 µM in each case.
As for `CC(C)C[C@H](NC(=O)[C@H](Cc1cnc[nH]1)NC(=O)[C@H](CCCN=C(N)N)NC(=O)CNC(=O)[C@@H](NC(=O)[C@H](C)NC(=O)[C@@H](N)CO)C(C)C)C(=O)N[C@@H](CCCN=C(N)N)C(=O)N[C@@H](CCCN=C(N)N)C(=O)N[C@@H](Cc1ccccc1)C(=O)N[C@@H](CC(C)C)C(=O)N[C@@H](CC(C)C)C(=O)N[C@@H](CCCN=C(N)N)C(=O)N[C@@H](CCCCN)C(=O)N[C@@H](Cc1cnc[nH]1)C(=O)N[C@@H](CCCN=C(N)N)C(=O)N[C@@H](CCCCN)C(=O)N[C@@H](Cc1cnc[nH]1)C(=O)O` [SAVGRHLRRFLLRKHRKH], the MIC was ≥ 100 µM in [36]; 2.34 µM (≈ 5.31 µg/mL) against Bacillus cereus AS1.126; ≥ 100 µM in test [37]; 4.69 µM (≈ 10.6 µg/mL) in test [38]; 4.69 µM (≈ 10.6 µg/mL) in test [39]; ≥ 100 µM in the test on Escherichia coli AS1.349. The MIC in test [40] is ≥ 100 µM; in test [41] it was ≥ 100 µM; in [42], 4.69 µM (≈ 10.6 µg/mL); in [43], ≥ 100 µM; in [44], ≥ 100 µM; in test [45], 3.13 µM (≈ 7.1 µg/mL).

Values taken from DBAASP.
